PubChem BioAssay AID540268 (Broad Institute, 2011)
Activity calls are given as the source filed them. How the calls were made is not given here.

experiment: reduced viability of parasite-Hsp90 expressing yeast – ATP luminescence, 48 h, cherry-picked samples, anti-malarial Hsp90 inhibitor project, dose response (AID 540268); conditions: yeast expressing the parasite Hsp90, ATP luminescence;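 on activity change, negative = inhibition: 0% = neutral control wells and -100% = positive control wells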

| Compound | AC50 |
| --- | --- |
| O=c1cc(-c2ccccc2)cc(-c2ccccc2)n1O | 1.17 µM |
| O=[S@]1Oc2ccccc2-c2ccccc21 | 1.67 µM |
| CCCCCCCCCCCCCCCCn1cc[n+](CC(C)=O)c1 | 4.39 µM |
| O=C(/C=C/c1ccccc1)NC(=S)NNC(=O)c1cnccn1 | 3.69 µM |
| CC(=O)N(C)c1ccc(OCC(O)Cn2c3ccc(Cl)cc3c3cc(Cl)ccc32)cc1 (stereo unspecified) | 4.56 µM |
| O=C(O)c1ccc(N/N=C/c2ccc(-c3ccccc3)cc2)cc1 | 4.22 µM |
| O=[N+]([O-])c1ccc(O)c(C2CCCCC2)c1 | 4.84 µM |
| O=C(N/N=C/c1cc2c3c(c1O)CCCN3CCC2)c1ccccc1O | 1.42 µM |
| O=C(c1ccc(-c2ccccc2)c(F)c1)C1CCCN(C(=O)c2cncs2)C1 (stereo unspecified) | 8.42 µM |
| CC1(C(=O)c2ccccc2)C2c3c(ccc4ccccc34)OC(=O)C21C(=O)N1CCOCC1 (stereo unspecified) | 4.16 µM |
| C[C@@]12C(=O)Nc3ccc(Cl)cc3C(=O)N1[C@H]1c3ccccc3OC[C@@H]1[C@@H]2c1ccccc1 | 0.487 µM |
| COc1ccc(N(C(=O)c2ccncc2)S(=O)(=O)c2ccccc2)cc1 | 1.66 µM |
| Cc1c(N=Cc2cc(Br)cc(Br)c2O)cccc1C(=O)O | 3.06 µM |
| COc1cc(C#Cc2c(-c3cncn3C)n(C)c3ccc(-c4ccc(OC)nc4)cc23)cc(OC)c1 | 4.74 µM |
| CN(O)C(=S)c1ccccc1 | 4.38 µM |
| CCCC(=O)NC(c1ccc(C)cc1)c1ccc2cccnc2c1O (stereo unspecified) | 3.4 µM |
| Clc1ccccc1CN(Cc1ccco1)Cc1nnnn1C1CCCC1 | 9.49 µM |
| O=C(Nc1ccccc1Cl)/C(Cl)=C(\Cl)S(=O)c1ccccc1 (stereo unspecified) | 0.718 µM |
| COc1ccc(NC(=O)C2CCCN2S(=O)(=O)c2cccc3cccnc23)c(OC)c1 (stereo unspecified) | 1.31 µM |
| CCCCCCCCCCCCCCCC[N+](C)(C)C | 8.6 µM |
| O=C(CN1CCN(c2ncc(C(F)(F)F)cc2Cl)CC1)NCCNc1ncc(C(F)(F)F)cc1Cl | 3.49 µM |
| C[C@@H]1C[C@@H]([C@H](O)CC2CC(=O)NC(=O)C2)C(=O)[C@@H](C)C1 | < 0.195 µM |
| O=C1CC(N2CCCCCC2)C(=O)N1c1ccc2c(c1)OCO2 (stereo unspecified) | 4.12 µM |
| CCOc1ccc(Br)cc1C1=NN(C(C)=O)C(c2ccc([N+](=O)[O-])s2)O1 (stereo unspecified) | 8.12 µM |
| CCCCCCCCCCCCCCCCn1cc[n+](C)c1 | 2.89 µM |
| CCc1ccc(-c2cc(C(=O)N3N=C(C(F)F)CC3(O)C(F)F)c3ccccc3n2)cc1 (stereo unspecified) | 3.24 µM |
| CCCCCCCCCCCCCCCC(=O)OC(CC(=O)O)C[N+](C)(C)C (stereo unspecified) | 1.23 µM |
| CC[C@H](C)/C=C/C1=CC2=C(Cl)C(=O)[C@@]3(C)OC(=O)C(C(=O)[C@H](C)[C@@H](C)O)=C3C2=CO1 | 15.2 µM |
| O=S(=O)(c1c(F)cccc1F)N(CCc1ccc(F)cc1)C[C@@H](O)COCc1ccccc1 | 1.2 µM |

same assay, conditions: yeast expressing the parasite Hsp90, ATP luminescence, at 26 µM (top of the series)

| Compound | activity change, negative = inhibition |
| --- | --- |
| O=C1S/C(=C/c2ccc(N3CCOCC3)o2)C(=O)N1Cc1c(F)cccc1Cl | 23.4% (inactive) |
| Cc1cccc(NC(=S)N/N=C/c2ccc([N+](=O)[O-])s2)c1 | -14.3% (inactive) |
